Measurements as given in patent US20070066682A1, “Arylalkylamine vanadium (V) salts for the treatment and/or prevention of Diabetes mellitus” (priority 2005, published 2007).
Entries after “also recorded” stand apart in the source; their conditions may differ.

Key:
isolated rat adipocytes = assay: Glucose transport (2-deoxyglucose uptake) in isolated rat adipocytes; format: cell-based; conditions: for stimulation of glucose transport in the presence of semicarbazide: 1 mM semicarbazide; for stimulation of glucose transport in the presence of semicarbazide / stimulation of glucose transport (2-DG uptake): dihydrate; for stimulation of glucose transport (2-DG uptake): 45 min incubation
Protocol: In order to determine whether salts formed by vanadate and benzylamine could produce an insulin mimetic effect, the effect of increasing concentrations of hexaquis(benzylammonium) decavanadate on glucose transport activity in isolated rat adipocytes was tested. […] In similar assays, the activity of hexaquis(benzylammonium) decavanadate, pentaquis(benzylammonium) decavanadate and tetraquis(benzylammonium) decavanadate on glucose transport activity in isolated rat adipocytes were analyzed.
To determine the possible insulin mimetic effect of certain vanadium arylalkylamines, the capacity of these compounds to enhance glucose transport in isolated rat adipocytes was tested. Adipose cells from Wistar rats were incubated for 45 minutes in basal conditions (Basal) or in the presence of 100 nM insulin (Ins), and different concentrations of. hexaquis(benzylammonium) decavanadate (B6V10) in the absence or in the presence of 1 mM semicarbazide (SCZ). Subsequently, 2-DG transport was measured over a 5 min. interval.
The effects of the three tested compounds (B6V10, B5V10 and B4V10) were compared. Adipose cells from Wistar rats were incubated for 45 minutes in basal conditions (Basal) or in the presence of 100 nM insulin (Ins), and different concentrations of. decavanadate (V10), hexaquis(benzylammonium) decavanadate (B6V10), pentaquis(benzylammonium) decavanadate (B5V10) or tetraquis(benzylammonium) decavanadate (B4V10) in the absence or in the presence of 1 mM semicarbazide (SCZ). 2-DG transport was measured over 5 min. intervals. […]
(§1) The effects of incubation with semicarbazide or phosphatidylinositol 3-kinase inhibitors were also investigated. Adipose cells were incubated with B6V10 (25 μM, 45 min) in the absence or presence of wortmannin (2 μM, 45 min), LY294002 (10 μM, 45 min) or semicarbazide (1 mM, 45 min) and thereafter 2-deoxyglucose uptake was determined during 5 min.

[1] = tested on: mice made glucose intolerant by a high fat diet; assay: Glucose tolerance and plasma insulin in high-fat fed mice, acute administration; format: in vivo, mouse; conditions: dihydrate
Protocol: Male Wistar rats weighting 180-220 g were purchased from Harlan (Interfauna Ibèrica S.A., Spain). Diabetes was induced by a single intraperitoneal injection of a freshly prepared solution of streptozotocin (in some studies the dose was 45 mg/kg body weight and in some others 100 mg/kg body weight dissolved in 50 mM citrate buffer, pH 4.5). Only diabetic animals with glycemia above 300 mg/dl were used. The animals were housed in animal quarters at 22° C., with a 12 h light/12 h dark cycle and were fed ad libitum. All procedures used were approved by the animal ethical committee of the University of Barcelona, Spain. […]
(§2) In glucose tolerance tests and in chronic treatments, circulating glucose concentrations were determined by a rapid glucose analyser (Accutrend® Sensor Comfort, Roche, Basel. Switzerland). Plasma insulin (IRI) concentration was determined by ELISA method using a kit obtained from Crystal Chem Inc. (Downers Grove, Ill.). Plasma triglycerides (Biosystems, Barcelona, Spain) and NEFAS (Wako Chemicals, Neuss, Germany) were determined with standard […] methods.
Insulin and glucose responses during the glucose tolerance test were calculated as the incremental plasma values integrated over a period of 120 min after injection of glucose. […] Data distribution was analyzed by the Kolmogorov-Smirnov test. […]

[2] = tested on: streptozotocin-induced diabetic rat with undetectable circulating insulin; assay: Subcutaneous treatment of streptozotocin (100 mg/kg) diabetic rats with undetectable circulating insulin; format: in vivo
Protocol: Male Wistar rats weighting 180-220 g were purchased from Harlan (Interfauna Ibèrica S.A., Spain). Diabetes was induced by a single intraperitoneal injection of a freshly prepared solution of streptozotocin (in some studies the dose was 45 mg/kg body weight and in some others 100 mg/kg body weight dissolved in 50 mM citrate buffer, pH 4.5). Only diabetic animals with glycemia above 300 mg/dl were used. The animals were housed in animal quarters at 22° C., with a 12 h light/12 h dark cycle and were fed ad libitum. All procedures used were approved by the animal ethical committee of the University of Barcelona, Spain. Male mice C57 BL/Ks bearing the db/db mutation (Jackson Laboratories, Bar Harbor, Me.) were purchased from Harlan France (Gannat, France). C57BL/6J male mice were assigned for 16 weeks to very high-fat diet containing (in kcal): 72% from fat, 28% from proteins and <1% from carbohydrates (Burcelin et al., 2002, Am. J. Physiol. Endocrinol. Metab 282: E834-E842).
as §2
To this end, rats were made diabetic by the injection of a large dose of streptozotocin (100 mg/kg) that eliminates β-pancreatic insulin content. […] These streptozotocin-induced diabetic rats were subcutaneously treated with B6V10 (2.5 μmol/kg) (solid squares, FIG. 9A) delivered by osmotic minipumps or left untreated (solid circles, FIG. 9A). Sham-operated nondiabetic rats were also untreated (solid triangles, FIG. 9A).
The concentration of circulating glucose under these conditions was also assayed. After 28 days of treating diabetic rats with hexaquis(benzylammonium) decavanadate (2.5 μmol/kg) (wide striped bars, FIG. 9B), or with decavanadate (close striped bars, FIG. 9B) delivered by osmotic minipumps, plasma insulin and glucose were measured. Untreated diabetic (solid bars, FIG. 9B) or nondiabetic rats (open bars, FIG. 9B) were similarly assayed as controls.

insulin receptor = assay: Tyrosine phosphorylation of insulin receptor in isolated rat adipocytes; format: cell-based; conditions: 25 μM
Protocol: (§3) Isolated fat cells were disrupted for total membrane preparation by hypo-osmotic lysis in a 20 mM HES buffer and an antiprotease and antiphosphatase cocktail as reported by Abella et al. (2003, Diabetes 52: 1004-1013). Protein concentrations were determined by the Bradford method (Bradford, 1976, Anal. Biochem. 72: 248-254) with gamma-globulin as protein concentration standard. Immunoprecipitation and immunoblot assays were performed as previously described by Abella et al. (2004, Id.) with the use of a monoclonal antiphosphotyrosine antibody for the immunoprecipitation and an anti-insulin receptor antibody for immunoblotting, respectively. SDS-polyacrylamide gel electrophoresis was performed on membrane proteins following conventional procedures. Proteins were transferred to Immobilon and immunoblotting was performed as reported by Castello et al. (1994, J. Biol. Chem. 269: 5905-5912).
The mechanism of action of B6V10 was investigated in isolated rat adipocytes. Adipose cells from Wistar rats were incubated for different times in the presence of 25 μM hexaquis(benzylammonium) decavanadate (B6V10). […] Subsequently, 2-deoxyglucose uptake (results shown in FIG. 7A), tyrosine phosphorylation of insulin receptor (FIG. 7B), phospho-Thr^308-protein kinase B (FIG. 7C) and phospho-Ser^473-protein kinase B (FIG. 7D) was measured. […]

adipocyte lipolysis = assay: Adipocyte lipolysis; format: cell-based
protein kinase B = assay: Protein kinase B phosphorylation in isolated rat adipocytes; format: cell-based
Protocol: as §3
The mechanism of action of B6V10 was investigated in isolated rat adipocytes. Adipose cells from Wistar rats were incubated for different times in the presence of 25 μM hexaquis(benzylammonium) decavanadate (B6V10). Cells were also incubated in the presence of insulin (100 nM, 45 min), decavanadate (25 μM, 45 min) or semicarbazide (1 mM, 45 min). Subsequently, 2-deoxyglucose uptake (results shown in FIG. 7A), tyrosine phosphorylation of insulin receptor (FIG. 7B), phospho-Thr^308-protein kinase B (FIG. 7C) and phospho-Ser^473-protein kinase B (FIG. 7D) was measured. […] The phosphorylation of protein kinase B induced by B6V10 was parallel to activation of glucose transport (FIG. 7C and 7D).
as §1

[3] = isolated rat adipocytes, listed as hexaquis(benzylammonium) decavanadate
[4] = isolated rat adipocytes, FIG. 1

In the case of “hexaquis(benzylammonium) decavanadate (V) dihydrate [Entry B6V10]”, the “stimulation of glucose transport at 25 μM compared with the combination of benzylamine and vanadate” value (isolated rat adipocytes; 25 μM vs 100 μM benzylamine and 100 μM vanadate, rat adipocytes) is reported as “greater stimulation of glucose transport than the combination of 100 μM benzylamine and 100 μM vanadate”, the “stimulation of glucose transport in the presence of semicarbazide” value (isolated rat adipocytes; isolated rat adipocytes) is reported as “completely blocked by semicarbazide; also recorded: blocked in the presence of semicarbazide” and the “stimulation of glucose transport in the presence of semicarbazide” value (isolated rat adipocytes; [3]) is reported as “completely blocked by semicarbazide; also recorded: this effect was inhibited”. For the same substance, the “stimulation of glucose transport (2-DG uptake)” value (isolated rat adipocytes; isolated rat adipocytes) was “stimulated glucose transport in rat adipocytes in a concentration-dependent manner”, the “stimulation of glucose transport (2-DG uptake)” value (isolated rat adipocytes; [3]) was “pronounced stimulation on glucose transport” and the “concentration from which stimulation of glucose transport was perceptible” value (isolated rat adipocytes; [4]) was at least 0.5 µM. The “concentration of maximal effect on glucose transport” value (isolated rat adipocytes; [4]) was 2.5 µM, the EC50 (isolated rat adipocytes; isolated rat adipocytes, FIG. 1, read-out: concentration of semi-maximal effect on glucose transport) was over 1000 nM and the “maximum effect on glucose transport compared with benzylamine and vanadate in combination” value (isolated rat adipocytes; isolated rat adipocytes, combination 100 μM sodium vanadate and 100 μM benzylamine (FIG. 1)) was “greater than that produced by the presence of benzylamine and vanadate in combination”. For the same substance, the “maximal effect on glucose transport as % of the maximal stimulation caused by insulin” value (isolated rat adipocytes; rat adipocytes, 100 nM insulin) was 85%, the “glucose tolerance and plasma insulin levels” value [1] was “ameliorated the pattern of plasma insulin levels; also recorded: amelioration of glucose tolerance and improved plasma insulin levels” and the “glycemia in diabetic rats with undetectable insulin” value ([2]; 2.5 μmol/kg subcutaneous minipumps, STZ 100 mg/kg, dihydrate) was “markedly effective in lowering hyperglycemia; also recorded: reducing glycemia; also recorded: significant differences between the B6V10 and the untreated groups; also recorded: antidiabetic effects”. The “plasma glucose and insulin after 28 days of treatment” value ([2]; 2.5 μmol/kg, osmotic minipumps, STZ 100 mg/kg) was “plasma glucose was reduced even without any observable change in the amount of insulin”, the “body weight or organ weights” value ([2]; chronic treatment with therapeutic doses) was “did not affect body weight or organ weights” and the “tyrosine phosphorylation of insulin receptors” value (insulin receptor) was “undetectable”. For the same substance, the adipocyte lipolysis (adipocyte lipolysis) was “inhibited adipocyte lipolysis”, the “protein kinase B phosphorylation” value (protein kinase B; 25 μM, rat adipocytes) was “rapidly stimulated protein kinase B” and the “time at which protein kinase B phosphorylation was detectable” value (protein kinase B; 25 μM, rat adipocytes) was at most 2.5 min. The “protein kinase B phosphorylation in the presence of semicarbazide” value (protein kinase B; B6V10 25 μM, semicarbazide 1 mM, 45 min) was “blocked by semicarbazide”.
